ChEMBL document CHEMBL1201862, “PubChem BioAssay data set” (2004)
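Briefly, cells in 96-well plates were exposed to five compound concentrations for 48 h, and endpoints were estimated by linear interpolation. The concentration for 50% growth inhibition is given as GI50.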 Calls of active or inactive are those of the source. Rule as the data show it: active = GI50 up to about 1.1 µM and inactive = higher.

Assays:
Assay in all cases: NCI-60 cell line screen, 48 h
NCI-H460 = test system: NCI-H460
OVCAR-8 = test system: OVCAR-8
BT-549 = test system: BT-549
SF-539 = test system: SF-539
SW-620 = test system: SW-620
COLO 205 = test system: COLO 205
MOLT-4 = test system: MOLT-4
ACHN = test system: ACHN
SF-268 = test system: SF-268
786-0 = test system: 786-0
HOP-92 = test system: HOP-92
SF-295 = test system: SF-295
SN12C = test system: SN12C
Malme-3M = test system: Malme-3M
SNB-19 = test system: SNB-19
CAKI-1 = test system: CAKI-1
SR = test system: SR
SK-OV-3 = test system: SK-OV-3
DU-145 = test system: DU-145
HCT-15 = test system: HCT-15
HL-60 = test system: HL-60
SK-MEL-2 = test system: SK-MEL-2
SK-MEL-5 = test system: SK-MEL-5
MDA-N = test system: MDA-N
LOX IMVI = test system: LOX IMVI
KM12 = test system: KM12
OVCAR-3 = test system: OVCAR-3
K562 = test system: K562
RPMI-8226 = test system: RPMI-8226
HT-29 = test system: HT-29
Hs-578T = test system: Hs-578T
TK-10 = test system: TK-10
HCC 2998 = test system: HCC 2998
OVCAR-5 = test system: OVCAR-5
NCI-H522 = test system: NCI-H522
NCI-H226 = test system: NCI-H226
M14 = test system: M14
NCI-H23 = test system: NCI-H23
IGROV-1 = test system: IGROV-1
PC-3 = test system: PC-3
EKVX = test system: EKVX
MCF7 = test system: MCF7
UO-31 = test system: UO-31
HCT-116 = test system: HCT-116
UACC-257 = test system: UACC-257
NCI/ADR-RES = test system: NCI/ADR-RES
MDA-MB-435 = test system: MDA-MB-435
CCRF-CEM = test system: CCRF-CEM
U-251 = test system: U-251
OVCAR-4 = test system: OVCAR-4
T47D = test system: T47D
HOP-62 = test system: HOP-62
A549 = test system: A549
RXF 393 = test system: RXF 393
UACC-62 = test system: UACC-62

With `Cc1ccc(O)c(C2=CC(c3cccc(Cl)c3)SC(=N)N2)c1` (stereo not given) as the compound, how does the GI50 (NCI-H460) read?
The GI50 was 23.9 µM (inactive).

What about the GI50 (OVCAR-8) of the same compound?
Its GI50 is 37.8 µM (inactive).

What about the GI50 (BT-549) of the same compound?
The GI50 was 31.6 µM (inactive).

And the GI50 (SF-539)?
Its GI50 is 23 µM (inactive).

And the GI50 (SW-620)?
Its GI50 is 24.4 µM (inactive).

What about the GI50 (COLO 205) of the same compound?
Its GI50 is 16.9 µM (inactive).

What about the GI50 (MOLT-4) of the same compound?
The GI50 was 19.1 µM (inactive).

And the GI50 (ACHN)?
Its GI50 is 24.2 µM (inactive).

What about the GI50 (SF-268) of the same compound?
Its GI50 is 32.2 µM (inactive).

And the GI50 (786-0)?
Its GI50 is 30.8 µM (inactive).

What about the GI50 (HOP-92) of the same compound?
The GI50 was 10.8 µM (inactive).

And the GI50 (SF-295)?
The GI50 was 17.8 µM (inactive).

What about the GI50 (SN12C) of the same compound?
The GI50 was 16.9 µM (inactive).

What about the GI50 (Malme-3M) of the same compound?
Its GI50 is 24.2 µM (inactive).

And the GI50 (SNB-19)?
Its GI50 is 16.1 µM (inactive).

What about the GI50 (CAKI-1) of the same compound?
The GI50 was 28.2 µM (inactive).

And the GI50 (SR)?
Its GI50 is 17.3 µM (inactive).

What about the GI50 (SK-OV-3) of the same compound?
Its GI50 is 26.4 µM (inactive).

And the GI50 (DU-145)?
The GI50 was 46.5 µM (inactive).

What about the GI50 (HCT-15) of the same compound?
The GI50 was 18.9 µM.

And the GI50 (HL-60)?
The GI50 was 30 µM (inactive).

What about the GI50 (SK-MEL-2) of the same compound?
The GI50 was 18.2 µM (inactive).

And the GI50 (SK-MEL-5)?
Its GI50 is 16.1 µM (inactive).

What about the GI50 (MDA-N) of the same compound?
The GI50 was 18.8 µM (inactive).

What about the GI50 (LOX IMVI) of the same compound?
The GI50 was 18.6 µM (inactive).

And the GI50 (KM12)?
Its GI50 is 24.9 µM (inactive).

What about the GI50 (OVCAR-3) of the same compound?
The GI50 was 29.5 µM (inactive).

What about the GI50 (K562) of the same compound?
Its GI50 is 19.4 µM (inactive).

And the GI50 (RPMI-8226)?
Its GI50 is 17.7 µM (inactive).

And the GI50 (HT-29)?
The GI50 was 20.8 µM (inactive).

And the GI50 (Hs-578T)?
Its GI50 is 19.9 µM (inactive).

What about the GI50 (TK-10) of the same compound?
Its GI50 is 22.4 µM (inactive).

What about the GI50 (HCC 2998) of the same compound?
Its GI50 is 16.1 µM (inactive).

What about the GI50 (OVCAR-5) of the same compound?
Its GI50 is 26.2 µM (inactive).

And the GI50 (NCI-H522)?
The GI50 was 16.1 µM (inactive).

What about the GI50 (NCI-H226) of the same compound?
The GI50 was 16.6 µM (inactive).

And the GI50 (M14)?
Its GI50 is 26 µM (inactive).

What about the GI50 (NCI-H23) of the same compound?
Its GI50 is 26.6 µM (inactive).

And the GI50 (IGROV-1)?
Its GI50 is 19.1 µM (inactive).

And the GI50 (PC-3)?
The GI50 was 16.6 µM (inactive).

And the GI50 (EKVX)?
The GI50 was 17.1 µM (inactive).

And the GI50 (MCF7)?
Its GI50 is 29.9 µM (inactive).

What about the GI50 (UO-31) of the same compound?
The GI50 was 27.4 µM (inactive).

What about the GI50 (HCT-116) of the same compound?
The GI50 was 19.3 µM (inactive).

And the GI50 (UACC-257)?
Its GI50 is 20.6 µM (inactive).

And the GI50 (NCI/ADR-RES)?
The GI50 was 29.2 µM (inactive).

What about the GI50 (MDA-MB-435) of the same compound?
Its GI50 is 19 µM (inactive).

And the GI50 (CCRF-CEM)?
Its GI50 is 20.1 µM (inactive).

And the GI50 (U-251)?
The GI50 was 18.3 µM (inactive).

What about the GI50 (OVCAR-4) of the same compound?
The GI50 was 1.77 µM (inactive).

And the GI50 (T47D)?
Its GI50 is 23.8 µM (inactive).

What about the GI50 (HOP-62) of the same compound?
Its GI50 is 23 µM (inactive).

What about the GI50 (A549) of the same compound?
Its GI50 is 23.3 µM (inactive).

What about the GI50 (RXF 393) of the same compound?
Its GI50 is 23.1 µM (inactive).

And the GI50 (UACC-62)?
The GI50 was 13.7 µM (inactive).
